In series [1] the test system is RAW264.7 cells. Nature of the series: WST-1 cell viability, RAW264.7. The format is cell-based. To be noted: Mus musculus. The protocol: (§1) Inhibition of IFNγ-induced NO production by AIMs is Nrf2-dependent (Dinkova-Kostova, 2005). […] Nitrite (NO2^−) levels in the media were measured as a surrogate for nitric oxide using the Griess reagent assay. Cell viability was assessed using the WST-1 assay. […] 63170, 63171, 63179, and 63189 are compounds of the formulas: […]
In general terms: Tetrazolium assays rely on reduction of a dye to a coloured formazan, in cell work by metabolically active cells.

Series [2] has as its system IFNγ-induced NO production. Kind of series: IFNγ-induced NO production in RAW264.7 macrophages (Griess reagent). The following applies: Mus musculus. The format is cell-based. Here is the method:
as §1
(In general: Nitrite, measured by Griess reagent, commonly stands in for NO production.)

A short description of series [3]: TGA-MS of solid forms. The class given is physicochemical. The following applies: for hygroscopicity: indicated by TGA-MS; for mass loss in TGA-MS between 25 and 200° C.: traces of H2O. Here is the method: The TGA was run with TA instruments, data were collected on a thermal balance (Q-5000, TA Instruments, New Castle, Del.) equipped with a data analyzer (Universal Analysis 2000, version 4.5A, TA Instruments, New Castle, Del.). During experiments, the furnace was purged with nitrogen at 60 mL/minute, while the balance chamber was purged at 40 mL/minute. Temperature of the TGA furnace was calibrated using curie points of […] and nickel. Sample size ranged from 2 to 20 mg, and a heating rate of 10° C./minute was used.
For TGA-MS, the thermogravimetric analysis part was the same as above. The mass of evolved gas was analyzed with […] GSD 301 T3 ThermoStar ([…] Vacuum, Asslar, Germany). The instrument was operated and data evaluated with Software Quadstar 32-bit (V7.01, Inficon, LI-9496 Balzers, Liechtenstein).

For series [4], the system named is glutathione levels. Kind of series: induction of glutathione levels, RAW264.7 mouse model. The class given is cell-based. From the text:
Glutathione and NADPH are critical factors required for the maintenance of cellular redox capacity. […] Data shown are representative of two independent experiments.

Series [5] has as its system Nrf2 protein expression in SK-N-SH cells. Nature of the series: in-cell western NQO1 assay, SK-N-SH cells. The following applies: Homo sapiens, 72 h, 3 days incubation, read-out: EC50 for induction of Nrf2 protein expression in SK-N-SH cells. The format is cell-based. Here is the method: HMOX1 protein was not detected in untreated or RTA 408-treated SH-SY5Y cells. […] The same amount of 63170 (54.6 nM) was required.
The EC50 was measured using an in-cell western NQO1 assay where the cells were incubated with the compound under evaluation for 3 days. After incubation with the compound of interest, the cells were reacted with mouse NQO1 antibody and then the next day the cells were reacted with IRDye-800CW-anti-mouse IgG antibody. The target signals were visualized and then analyzed.

Series [6] deals with TNFα-induced NF-κB activation. Kind of series: TNFα-induced NF-κB luciferase reporter, HeLa/NF-κB-Luc cells. The format is cell-based. To be noted: Homo sapiens, 1 h pretreatment, TNFα 10 ng/mL 5 h. From the text:
NF-κB is a transcription factor that plays a central role in the regulation of many immune and inflammatory responses.
Background: Reporter assays use an easily measured gene product as a stand-in for the process of interest.

[7] abbreviates: 2 h pre-treatment, 20 ng/mL IFNγ 24 h, read-out: IC50, suppression of IFNγ-induced NO production.

The structures appear in SMILES notation. Where two headings read alike, the source gives them in different places.

As to `CC1(C)CC[C@]2(CO)CC[C@]3(C)[C@H](C(=O)C=C4[C@@]5(C)C=C(C#N)C(=O)C(C)(C)[C@@H]5CC[C@]43C)[C@@H]2C1` [compound 63355, reference compound], the IC50 (in general, the point on the concentration scale where inhibition reaches its midpoint) came to 150 nM in series [1] and 0.63 ± 0.06 nM in series [2] (Table 15, read-out: NO IC50 (nM), RAW264.7).

`CC1(C)CC[C@]2(NC(=O)C(C)(F)F)CC[C@]3(C)[C@H](C(=O)C=C4[C@@]5(C)C=C(C#N)C(=O)C(C)(C)[C@@H]5CC[C@]43C)[C@@H]2C1` [Form B]: in series [3], the hygroscopicity result was “very slightly hygroscopic”; the “mass loss in TGA-MS between 25 and 200° C.” value was around 0.2 wt.-%.

Turning to `CC1(C)CC[C@]2(NC(=O)C(F)(F)F)CC[C@]3(C)[C@H](C(=O)C=C4[C@@]5(C)C=C(C#N)C(=O)C(C)(C)[C@@H]5CC[C@]43C)[C@@H]2C1` [compound 63171], the values for the EC50 in series [4] and in series [5] were 23.2 nM and 122 nM, respectively. In addition, the IC50 in series [2] (setting [7]) is 6.9 ± 0.6 nM.

Take `CC1(C)CC[C@]2(NC(=O)C(C)(F)F)CC[C@]3(C)[C@H](C(=O)C=C4[C@@]5(C)C=C(C#N)C(=O)C(C)(C)[C@@H]5CC[C@]43C)[C@@H]2C1` [Form A]: in series [3], the hygroscopicity entry is on record as “slightly hygroscopic”; the “mass loss in TGA-MS between 25 and 200° C.” value is recorded as around 0.5 wt.-%.

Turning to `CC1(C)CC[C@]2(NC(=O)CC(F)(F)F)CC[C@]3(C)[C@H](C(=O)C=C4[C@@]5(C)C=C(C#N)C(=O)C(C)(C)[C@@H]5CC[C@]43C)[C@@H]2C1` [compound 63179], the half-maximal inhibitory concentration (IC50) in series [2] (unit given as nm, read-out: IC50, suppression of IFNγ-induced NO production) was 11 ± 2 nM. In addition, in series [5], the EC50 – broadly, the concentration needed to bring the measured effect to its halfway point – was 126 nM.

With `CC(=O)N[C@]12CCC(C)(C)C[C@H]1[C@H]1C(=O)C=C3[C@@]4(C)C=C(C#N)C(=O)C(C)(C)[C@@H]4CC[C@@]3(C)[C@]1(C)CC2` [compound 63170], the figures for the half-maximal effective concentration (EC50) in series [4] and in series [5] were 12.1 nM and 54.6 nM, respectively. Further, the IC50 was found to be 953 nM in series [6] and 8 ± 3 nM in series [2] (setting [7]).

On to `CCC(=O)N[C@]12CCC(C)(C)C[C@H]1[C@H]1C(=O)C=C3[C@@]4(C)C=C(C#N)C(=O)C(C)(C)[C@@H]4CC[C@@]3(C)[C@]1(C)CC2` [compound 63189], for which the values for the EC50 in series [4] and in series [5] were 16 nM and 102 nM, respectively. In addition, the IC50 in series [6] was 854 nM; in series [2] (setting [7]) it was 7 ± 2 nM.

Source of the values: patent publication US11873320B2 (REATA PHARMACEUTICALS HOLDINGS, LLC, priority 2013, dated 2024).
